The subject of the experiment is C. atrox venom. The experiment in a line: Isolated venom exposure to FeCl3, CORM-2 or iCORM-2, then thrombelastography in human plasma (Example VI). In kind it is biochemical, Crotalus atrox. The following applies: in words. The method, then:
C. atrox venom was obtained from the National Natural Toxins Research Center at Texas A&M University-Kingsville, Tex., USA. Venom was reconstituted in calcium-free phosphate buffered saline (PBS, Sigma-Aldrich, Saint Louis, Mo., USA), and stored at −80° C. Pooled human normal plasma anticoagulated with sodium citrate was obtained from George King Bio-Medical, Overland Park, Kans., USA. Ferric chloride (FeCl3, 99.9% pure), tricarbonyldichlororuthenium (II) dimer (CORM-2), and dimethyl sulfoxide (DMSO) were obtained from Sigma-Aldrich. The final concentrations of FeCl3 (dissolved in PBS) and CORM-2 (dissolved in DMSO) were 0-10 μM and 0-100 μM, respectively; these were the concentrations used in previous works involving the effects of modifying fibrinogen prior to venom exposure in plasma.
To increase the detection of effects of iron/CO on venom activity, the concentration of venom chosen for isolated exposure and for addition to plasma was twice the amount expected to eliminate coagulation based on previous work (see, Nielsen V G, Boyer L V. Iron and carbon monoxide attenuate degradation of plasmatic coagulation by Crotalus atrox venom. Blood Coagul Fibrinolysis. In press). A 1 ml quantity of a 200 μg/ml solution of venom in PBS was prepared for each condition subsequently presented. The conditions were: 1) 1% addition (v/v) of PBS and DMSO to PBS without venom; 2) 1% addition (v/v) of PBS and DMSO to PBS with venom; 3) 1% addition of FeCl3 and CORM-2 to PBS without venom; 4) 1% addition of FeCl3 and CORM-2 to PBS […]) 1% addition of FeCl3 and DMSO to PBS with venom; 6) 1% addition of CORM-2 to PBS with venom; and lastly, 7) 1% addition of PBS and iCORM-2 to PBS with venom. After 3 min of incubation at room temperature, 3.6 μl of solution from one of these conditions was placed into 326 μl of plasma and 10 μl of tissue factor reagent (0.1% final concentration in distilled water; Diagnostica Stago S.A.S., Asnieres sur Seine, France) in a disposable cup in a computer-controlled Thrombelastograph® hemostasis system (Model 5000, Haemonetics Inc., Braintree, Mass., USA). After test solution addition, 20 μl of 200 mM CaCl2 was immediately added to initiate clotting. Data were collected at 37° C. for 15 min. […] 2014; 25(8):801-805) were determined: time to maximum rate of thrombus generation (TMRTG): this is the time interval (min) observed prior to maximum speed of clot growth; maximum rate of thrombus generation (MRTG): this is the maximum velocity of clot growth observed (dynes/cm^2/sec); and total thrombus generation (TTG, dynes/cm^2), the final viscoelastic resistance observed after clot formation. […]

Regarding `[Cl][Fe]([Cl])[Cl]` [iron, ferric chloride], the “effects on C. atrox venom activity on plasmatic coagulation” value (isolated venom exposure) is given as “no appreciable effects”. Where the note is “venom 2 μg/ml final, 10 μM FeCl3, 100 μM CORM-2 or iCORM-2”, the “coagulation kinetic parameters of plasma after addition of PBS with venom exposed to the agent” value is given as “absence of coagulation not different from samples exposed to venom alone”.

These data come from patent US10828326B2, “Compositions and methods for treating and preventing venom related poisoning” (priority 2015, dated 2020).
